Measured values from Sander's compilation of Henry's law constants (doi:10.1007/bf02268351).

Assay: Henry solubility constant Hcp at 298.15 K (mol/(m3 Pa))
Conditions: reference: Kolb et al. (1992)

Structure (SMILES) | Henry solubility constant Hcp
CC(Cl)(Cl)Cl [1,1,1-trichloroethane] | 0.00079
Cc1ccccc1C [1,2-dimethylbenzene] | 0.0014
CC(C)O [2-propanol] | 0.79
CC(=O)CC(C)C [4-methyl-2-pentanone] | 0.043
CCCCOC(C)=O [butyl ethanoate] | 0.023
C1CCCCC1 [cyclohexane] | 5.4e-05
CCOC(C)=O [ethyl ethanoate] | 0.044
CCCCCC [hexane] | 0.00024
Cc1ccccc1 [methylbenzene] | 0.0016
ClC(Cl)=C(Cl)Cl [tetrachloroethene] | 0.00081
